Legend:
Type in all cases: in vivo
[1] = system: Glycine max; experiment: Test Example 4: effect on crop by application to foliage (diluvial soil, plastic box); conditions: application to foliage, application herbicide amount 320 g/ha
Outline: (§1)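 Plants were grown in sterilized diluvial soil in a greenhouse at 25-30° C for 14 days, then sprayed on stems and leaves with water-diluted emulsion formulation at set rates in g/ha. Weed control and crop injury were scored 3 weeks after treatment on a 0-5 herbicidal-ratio scale, from 0 (≤5%) to 5 (≥90%).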

[2] = system: Triticum aestivum; experiment: as above; conditions: application to foliage, application herbicide amount 320 g/ha
Outline: as §1

[3] = system: directly sowed Oryza sativa; experiment: as above; conditions: application to foliage, application herbicide amount 320 g/ha
Outline: as §1

[4] = system: Beta vulgaris ssp. vulgaris; experiment: as above; conditions: application to foliage, application herbicide amount 320 g/ha
Outline: as §1

[5] = system: Brassica campestris L.; experiment: as above; conditions: application to foliage, application herbicide amount 320 g/ha
Outline: as §1

[6] = system: Echinochloa oryzacola Vasing.; experiment: Test Example 2: herbicidal activity, application during weed generation in submerged conditions; conditions: Eighteenth Table; application herbicide amount 320 g/ha
Source text: (§2) 5 Herbicidal ratio of 90% or more (almost completely withered) 4 Herbicidal ratio of 70% or more and less than 90% 3 Herbicidal ratio of 40% or more and less than 70% 2 Herbicidal ratio of 20% or more and less than 40% 1 Herbicidal ratio of 5% or more and less than 20% 0 Herbicidal ratio of 5% or less (almost no effect) [Test Example 2] Herbicidal Activity Test by Application During Weed Generation in Submerged Conditions After alluvial soil was placed into 1/10000 are of Wagner pot, water was poured and mixed to form a submerged condition having a water depth of 4 cm. Seeds of Echinochloa oryzacola Vasing., Scirpus juncoides, and Monochoria vaginalis were sowed in a mixed manner in the above pot and the pot was placed in the greenhouse of 25° C. to 30° C. to grow the plants. When Echinochloa oryzacola Vasing., Scirpus juncoides, and Monochoria vaginalis were grown to one leaf stage to two leaf stage, the emulsion agent containing the compound of the present invention prepared in accordance with Formulation Example 2 was diluted with water so as to be a predetermined herbicide amount and the diluted compound was applied to the surface of the water. Three weeks after the herbicide application, effects on each plant were investigated in accordance with the criteria of Test Example 1. A: Echinochloa oryzicola Vasing., B: Scirpus juncoides, C: Monochoria vaginalis, D: Leptochloa chinensis, E: Cyperus difformis, F: Digitaria ciliaris, G: Setaria viridis, H: Echinochloa crus-galli var. crus-galli, I: Avena fatua, J: Alopecurus myosuroides, K: Lolium multiflorum Lam., L: Apera spica-venti., M: Abutilon theophrasti, N: Amaranthus retroflexus, O: Chenopodium album, P: Stellaria media, Q: Galium spurium, R: Veronica persica, a: transplanted Oryza sativa, b: directly sowed Oryza sativa, c: Zea mays, d: Glycine max, e: Triticum aestivum, f: Beta vulgaris ssp. vulgaris, and g: Brassica campestris L. The application herbicide amount (g/ha) means an amount that a concentration is adjusted so that, when an application amount is converted into per hectare (1 ha), the herbicide is applied by the number of grams (g) of the described value.

[7] = system: Scirpus juncoides; experiment: as above; conditions: Eighteenth Table; application herbicide amount 320 g/ha
Source text: as §2

[8] = system: Monochoria vaginalis; experiment: as above; conditions: Eighteenth Table; application herbicide amount 320 g/ha
Source text: as §2

[9] = system: directly sowed Oryza sativa; experiment: Test Example 3: effect on crop by application to foliage (Wagner pot, water depth 0.1-0.5 cm); conditions: Nineteenth Table; application herbicide amount 320 g/ha
Outline: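 Alluvial soil in 1/10000 are Wagner pots, sown and grown 14 days in a 25–30 °C greenhouse. An emulsifiable concentrate diluted in water to the set dose (g/ha) was sprayed on stems and leaves. Effect scored three weeks later on a 0–5 scale: 5 = ≥90% herbicidal ratio, 0 = ≤5%.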

Compound | c (Glycine max) effect on crop [1] | e (Triticum aestivum) effect on crop [2] | d (directly sowed Oryza sativa) effect on crop [3] | f (Beta vulgaris ssp. vulgaris) effect on crop [4] | g (Brassica campestris L.) effect on crop [5] | A (Echinochloa oryzicola Vasing.) herbicidal ratio grade [6] | B (Scirpus juncoides) herbicidal ratio grade [7] | C (Monochoria vaginalis) herbicidal ratio grade [8] | b (directly sowed Oryza sativa) effect on crop grade [9]
Cc1nnc(NC(=O)c2ccc(C(F)(F)F)n3c(-c4ccc(Cl)cc4)nnc23)o1 [1-017] | 0 (Herbicidal ratio of 5% or less (almost no effect)) | 0 (Herbicidal ratio of 5% or less (almost no effect)) | 3 (Herbicidal ratio of 40% or more and less than 70%) | 5 (Herbicidal ratio of 90% or more (almost completely withered)) | 3 (Herbicidal ratio of 40% or more and less than 70%) | 2 (Herbicidal ratio of 20% or more and less than 40%) | 2 (Herbicidal ratio of 20% or more and less than 40%) | 0 (Herbicidal ratio of 5% or less (almost no effect)) | 0 (Herbicidal ratio of 5% or less (almost no effect))
CSc1nnc2c(C(=O)Nc3nnc(C)o3)ccc(C(F)(F)F)n12 [1-018, N-(5-Methyl-1,3,4-oxadiazol-2-yl)-3-(methylthio)-5-(trifluoromethyl)-[1,2,4]triazol o[4,3-a]pyridine-8-carboxamide] | 0 (Herbicidal ratio of 5% or less (almost no effect)) | 0 (Herbicidal ratio of 5% or less (almost no effect)) | 0 (Herbicidal ratio of 5% or less (almost no effect)) | 1 (Herbicidal ratio of 5% or more and less than 20%) | 0 (Herbicidal ratio of 5% or less (almost no effect)) | 0 (Herbicidal ratio of 5% or less (almost no effect)) | 2 (Herbicidal ratio of 20% or more and less than 40%) | 0 (Herbicidal ratio of 5% or less (almost no effect)) | 2 (Herbicidal ratio of 20% or more and less than 40%)
COCCOCc1nnc2c(C(=O)Nc3nnc(C)o3)ccc(C(F)(F)F)n12 [1-019] | 2 (Herbicidal ratio of 20% or more and less than 40%) | 3 (Herbicidal ratio of 40% or more and less than 70%) | 4 (Herbicidal ratio of 70% or more and less than 90%) | 5 (Herbicidal ratio of 90% or more (almost completely withered)) | 4 (Herbicidal ratio of 70% or more and less than 90%) | 4 (Herbicidal ratio of 70% or more and less than 90%) | 3 (Herbicidal ratio of 40% or more and less than 70%) | 3 (Herbicidal ratio of 40% or more and less than 70%) | 4 (Herbicidal ratio of 70% or more and less than 90%)
Cc1nnc(NC(=O)c2ccc(C(F)(F)F)n3c(COCC(F)(F)F)nnc23)o1 [1-020] | 1 (Herbicidal ratio of 5% or more and less than 20%) | 1 (Herbicidal ratio of 5% or more and less than 20%) | 0 (Herbicidal ratio of 5% or less (almost no effect)) | 5 (Herbicidal ratio of 90% or more (almost completely withered)) | 3 (Herbicidal ratio of 40% or more and less than 70%) | 2 (Herbicidal ratio of 20% or more and less than 40%) | 2 (Herbicidal ratio of 20% or more and less than 40%) | 2 (Herbicidal ratio of 20% or more and less than 40%) | 2 (Herbicidal ratio of 20% or more and less than 40%)
CCC(C)c1nnc2c(C(=O)Nc3nnc(C)o3)ccc(C(F)(F)F)n12 (stereo not drawn) [1-021] | 0 (Herbicidal ratio of 5% or less (almost no effect)) | 1 (Herbicidal ratio of 5% or more and less than 20%) | 3 (Herbicidal ratio of 40% or more and less than 70%) | 5 (Herbicidal ratio of 90% or more (almost completely withered)) | 3 (Herbicidal ratio of 40% or more and less than 70%) | 4 (Herbicidal ratio of 70% or more and less than 90%) | 4 (Herbicidal ratio of 70% or more and less than 90%) | 3 (Herbicidal ratio of 40% or more and less than 70%) | 3 (Herbicidal ratio of 40% or more and less than 70%)
Cc1cc(-c2nnc3c(C(=O)Nc4nnc(C)o4)ccc(C(F)(F)F)n23)no1 [1-022] | 2 (Herbicidal ratio of 20% or more and less than 40%) | 1 (Herbicidal ratio of 5% or more and less than 20%) | 3 (Herbicidal ratio of 40% or more and less than 70%) | 4 (Herbicidal ratio of 70% or more and less than 90%) | 2 (Herbicidal ratio of 20% or more and less than 40%) | 2 (Herbicidal ratio of 20% or more and less than 40%) | 2 (Herbicidal ratio of 20% or more and less than 40%) | 0 (Herbicidal ratio of 5% or less (almost no effect)) | 2 (Herbicidal ratio of 20% or more and less than 40%)
CCCc1nnc2c(C(=O)Nc3nnc(C)o3)ccc(C(F)(F)F)n12 [1-024] | 2 (Herbicidal ratio of 20% or more and less than 40%) | 0 (Herbicidal ratio of 5% or less (almost no effect)) | 4 (Herbicidal ratio of 70% or more and less than 90%) | 4 (Herbicidal ratio of 70% or more and less than 90%) | 4 (Herbicidal ratio of 70% or more and less than 90%) | 4 (Herbicidal ratio of 70% or more and less than 90%) | 1 (Herbicidal ratio of 5% or more and less than 20%) | 0 (Herbicidal ratio of 5% or less (almost no effect)) | 2 (Herbicidal ratio of 20% or more and less than 40%)
Cc1nnc(NC(=O)c2ccc(C(F)(F)F)n3c(C4CCCC4)nnc23)o1 [1-026] | 0 (Herbicidal ratio of 5% or less (almost no effect)) | 1 (Herbicidal ratio of 5% or more and less than 20%) | 3 (Herbicidal ratio of 40% or more and less than 70%) | 5 (Herbicidal ratio of 90% or more (almost completely withered)) | 3 (Herbicidal ratio of 40% or more and less than 70%) | 3 (Herbicidal ratio of 40% or more and less than 70%) | 1 (Herbicidal ratio of 5% or more and less than 20%) | 0 (Herbicidal ratio of 5% or less (almost no effect)) | 4 (Herbicidal ratio of 70% or more and less than 90%)

From US9708314B2, “Heterocyclic amide compound” (NISSAN CHEMICAL INDUSTRIES, LTD., priority 2013, dated 2017)
